Laboratory results taken from patent US12071414B2, “Apelin receptor agonists and methods of use thereof” (Sanford Burnham Prebys Medical Discovery Institute, priority 2015, dated 2024).
pEC50: −log10 of the molar value.

Target: T1, human apelin receptor (APJ, AGTRL-one, APLNR) (Homo sapiens, UniProt P35414)
T1 construct: host or cells: Chinese hamster ovary cells, stably integrated receptor
T1 sequence (P35414 1-380): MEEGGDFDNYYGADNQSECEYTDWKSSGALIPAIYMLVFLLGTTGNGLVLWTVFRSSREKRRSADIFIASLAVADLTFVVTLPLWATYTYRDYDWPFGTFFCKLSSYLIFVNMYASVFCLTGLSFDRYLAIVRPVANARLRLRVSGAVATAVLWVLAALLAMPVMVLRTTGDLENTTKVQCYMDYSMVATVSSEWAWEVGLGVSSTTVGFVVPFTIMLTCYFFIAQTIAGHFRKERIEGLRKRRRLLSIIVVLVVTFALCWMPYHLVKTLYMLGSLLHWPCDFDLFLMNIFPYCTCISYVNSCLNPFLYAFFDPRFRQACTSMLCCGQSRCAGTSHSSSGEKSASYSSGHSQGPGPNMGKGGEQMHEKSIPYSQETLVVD
Test: cell-based cAMP TR-FRET assay of apelin receptor activation
Conditions: CHO cells expressing human APJ, forskolin-stimulated cAMP, 0.5 h incubation, 50% of control (apelin-13, 1 nM) response; read-out: Potency Category (EC50)
Protocol: The assays disclosed herein were performed using cell lines from DiscoveX, Inc. Biological activity was determined to the cell—based assay. This assay detects activation of the receptor by reporting on intracellular cyclic adenosine monophosphate (cAMP) level. Chinese hamster ovary cells engineered to express the stably integrated human apelin receptor (APJ, AGTRL—one, APLNR), pleaded into the wells of the microtiter plate. Cells were stimulated with […] to increase intracellular cyclic AMP. Immediately following, compounds were added to the range of final concentrations 0.0-100 μM, in DMSO (not to exceed a final DMSO concentration greater than 1% ν/ν), and allowed to incubate with the cells for 0.5 h. At the end of the incubation, cells were lysed to stop APJ signaling and cAMP was quantified using a commercially available competitive immunoassay kit that applies homogenous time—resolved florescence energy transfer (TR—FRET). The assay is based on the competition between a europium (Eu) chelate—labeled cAMP donor tracer and cellular cAMP for binding sites on a cAMP—specific monoclonal antibody labeled with an acceptor fluorophore. When antibodies are bound to the cAMP tracer light emissions at 320 nm stimulate the energy transfer from the donor to the acceptor, which in turn emits light at 665 nm. In the presence of competitive unlabeled cAMP (derived from the activity of the receptor or forskolin-stimulated production of cAMP), the labelled cAMP tracer is dissociated from the cAMP antibody, resulting in a loss of FRET signal. The amount of light emitted by the FRET is inversely proportional to the cAMP generated by the cell/receptor system. Potency and efficacy at APJ are reported in reference to the canonical APJ receptor agonist apelin—13 when tested at 1 nM. […] Compound efficacy (% response) is reported as a percentage of the maximal apein-13 response at 1 nM (control). Potencies were calculated by fitting a […] logistic curve to concentration response consisting of at least 10 discrete data points spanning effective range of the compounds in the cell-based assay that measures cAMP. […] Category B is 200-500 nM; Category C is 100-200 nM; Category D is 50-100 nM; and Category E is <50 nM.

Compound	pEC50
COc1cc2nc(NC(=O)C(Oc3ccc(OCCN4CCCCC4)cc3)c3ccc(C#N)cc3)sc2cc1OC (stereo not shown)	7.00 to 7.30
CCS(=O)(=O)c1ccc(C(Oc2ccc(OC)cc2)C(=O)Nc2nc3cc4c(cc3s2)OCO4)cc1 (stereo not shown)	< 6.30
COc1cc2nc(NC(=O)Cc3ccc(S(=O)(=O)N(C)C)cc3)sc2cc1OC	< 6.30
COc1cc2nc(NC(=O)Cc3cccc(C(=O)O)c3)sc2cc1OC	< 6.30
CCS(=O)(=O)c1ccc(C(Oc2ccc(C#N)cc2)C(=O)Nc2nc3ncc(OC)cc3s2)cc1 (stereo not shown)	< 6.30
CCS(=O)(=O)c1ccc(C(Oc2ccc(C#N)cc2)C(=O)Nc2nc3ccc(OC)cc3s2)cc1 (stereo not shown)	< 6.30
COc1cc2nc(NC(=O)C(Oc3ccc(C#N)cc3)c3ccc(S(=O)(=O)NCCN(C)C)cc3)sc2cc1OC (stereo not shown)	> 7.30
CCS(=O)(=O)c1ccc(CC(=O)Nc2nc3cc(OC)c(OC)cc3o2)cc1	< 6.30
CCS(=O)(=O)c1ccc(C(Oc2cccc(OC)c2)C(=O)Nc2nc3cc(OC)c(OC)cc3s2)cc1 (stereo not shown)	< 6.30
CCS(=O)(=O)c1ccc(C(Oc2ccc(OC)cc2)C(=O)Nc2nc3c(OC)ccc(OC)c3s2)cc1 (stereo not shown)	< 6.30
CCS(=O)(=O)c1ccc(C2(C(=O)Nc3nc4cc(OC)c(OC)cc4s3)CC2)cc1	< 6.30
CCS(=O)(=O)c1ccc(C(OCCc2ccccc2)C(=O)Nc2nc3cc(OC)c(OC)cc3s2)cc1 (stereo not shown)	< 6.30
CCS(=O)(=O)c1ccc(C(Oc2ccc(C#N)cc2)C(=O)Nc2nc3c4c(ccc3s2)OCCO4)cc1 (stereo not shown)	< 6.30
COc1cc2nc(NC(=O)Cc3ccc(S(=O)(=O)C4CCCC4)cc3)sc2cc1OC	< 6.30
CCS(=O)(=O)c1ccc(C(Oc2ccc(I)cc2)C(=O)Nc2nc3cc(OC)c(OC)cc3s2)cc1 (stereo not shown)	6.30 to 6.70
COc1cc2nc(NC(=O)C(Oc3ccc(C#N)cc3)c3ccc(OC(C)C)cc3)sc2cc1OC (stereo not shown)	> 7.30
CCS(=O)(=O)c1ccc(C(C(=O)Nc2nc3cc(OC)c(OC)cc3s2)N2CCOCC2)cc1 (stereo not shown)	< 6.30
CCC(C(=O)Nc1nc2cc(OC)c(OC)cc2s1)c1ccc(S(=O)(=O)CC)cc1 (stereo not shown)	< 6.30
COc1ccc(S(=O)(=O)c2ccc(C(Oc3ccc(C#N)cc3)C(=O)Nc3nc4cc(OC)c(OC)cc4s3)cc2)cc1 (stereo not shown)	6.70 to 7.00
CCS(=O)(=O)c1ccc(C(Oc2ccc(C#N)cc2)C(=O)Nc2nc3c(OC)ccc(OC)c3s2)cc1 (stereo not shown)	7.00 to 7.30
COc1cc2nc(NC(=O)Cc3ccc(C(=O)N(C)C)cc3)sc2cc1OC	< 6.30
CCS(=O)(=O)c1ccc(C(Oc2ccc(C3CCCCC3)cc2)C(=O)Nc2nc3cc(OC)c(OC)cc3s2)cc1 (stereo not shown)	< 6.30
CCCOC(C(=O)Nc1nc2cc(OC)c(OC)cc2s1)c1ccc(S(=O)(=O)CC)cc1 (stereo not shown)	< 6.30
CCS(=O)(=O)c1ccc(C(Oc2ccc(C#N)cc2)C(=O)Nc2nc3cc(OCCN4CCOCC4)c(OC)cc3s2)cc1 (stereo not shown)	< 6.30

Compound	pEC50
COc1cc2nc(NC(=O)C(Oc3ccc(C#N)cc3)c3ccccc3S(=O)(=O)c3ccc(F)cc3)sc2cc1OC (stereo not shown)	6.30 to 6.70
COCCNC(=O)c1ccc(C(Oc2ccc(C#N)cc2)C(=O)Nc2nc3cc(OC)c(OC)cc3o2)cc1 (stereo not shown)	7.00 to 7.30
COc1cc2nc(NC(=O)Cc3cccc(C(=O)N(C)C)c3)sc2cc1OC	< 6.30
CCS(=O)(=O)c1ccc(C(Nc2ccc(C)cc2)C(=O)Nc2nc3cc(OC)c(OC)cc3s2)cc1 (stereo not shown)	< 6.30
CCS(=O)(=O)c1ccc(CC(=O)Nc2nc3c4c(ccc3s2)OCO4)cc1	< 6.30
CCS(=O)(=O)c1ccc(CC(=O)Nc2nc3c(OC)ccc(OC)c3s2)cc1	< 6.30
COc1cc2nc(NC(=O)C(Oc3ccc(C#N)cc3)c3ccccc3)sc2cc1OC (stereo not shown)	6.70 to 7.00
CCS(=O)(=O)c1ccc(C(Oc2ccc(C#N)cc2)C(=O)Nc2nc3cc(OCC4CC4)c(OC)cc3s2)cc1 (stereo not shown)	< 6.30
CCS(=O)(=O)c1ccc(C(Oc2ccc(C#N)cc2)C(=O)Nc2nc3ccc(N4CCN(C)CC4)cc3s2)cc1 (stereo not shown)	< 6.30
COc1cc2nc(NC(=O)C(Oc3ccc(C#N)cc3)c3ccc(C#N)cc3)sc2cc1OC (stereo not shown)	> 7.30
COCCNC(=O)c1ccc(C(Oc2ccc(C#N)cc2)C(=O)Nc2nc3cc(OC)c(OC)cc3s2)cc1 (stereo not shown)	7.00 to 7.30
CCS(=O)(=O)c1ccc(C(Oc2ccc(C#N)cc2C)C(=O)Nc2nc3cc(OC)c(OC)cc3s2)cc1 (stereo not shown)	> 7.30
CCS(=O)(=O)c1ccc(C(Oc2ccc(OC)cc2)C(=O)Nc2nc3ccc(OC)cc3s2)cc1 (stereo not shown)	< 6.30
COc1cc2nc(NC(=O)C(Oc3ccc(C#N)cc3)c3ccc(C(=O)N(C)C)cc3)oc2cc1OC (stereo not shown)	> 7.30
CCS(=O)(=O)c1ccc(C(Nc2ccccc2OC)C(=O)Nc2nc3cc(OC)c(OC)cc3s2)cc1 (stereo not shown)	< 6.30
CCS(=O)(=O)c1ccc(C(Oc2ccc(C#N)cc2F)C(=O)Nc2nc3cc(OC)c(OC)cc3s2)cc1 (stereo not shown)	> 7.30
CCS(=O)(=O)c1ccc(C(OCC2CCCCC2)C(=O)Nc2nc3cc(OC)c(OC)cc3s2)cc1 (stereo not shown)	< 6.30
CCS(=O)(=O)c1ccc(C(Oc2ccc(Br)cc2)C(=O)Nc2nc3cc(OC)c(OC)cc3s2)cc1 (stereo not shown)	6.30 to 6.70
CCS(=O)(=O)c1ccc(C(Oc2ccc(C#N)cc2)C(=O)Nc2nc3ccc(OC)c(OC)c3s2)cc1 (stereo not shown)	7.00 to 7.30
CCOc1c(OC)ccc2nc(NC(=O)C(Oc3ccc(C#N)cc3)c3ccc(S(=O)(=O)CC)cc3)sc12 (stereo not shown)	> 7.30
COc1cc2nc(NC(=O)C(Oc3ccc(C(=O)NCCN4CCCC4)cc3)c3ccc(C#N)cc3)sc2cc1OC (stereo not shown)	6.30 to 6.70
CCOc1ccc(OC(C(=O)Nc2nc3cc(OC)c(OC)cc3s2)c2ccc(S(=O)(=O)CC)cc2)cc1 (stereo not shown)	6.30 to 6.70
CCS(=O)(=O)c1ccc(C(Oc2ccc(C#N)cc2)C(=O)Nc2nc3cc(C)c(OC)cc3s2)cc1 (stereo not shown)	< 6.30
COCCOc1ccc(C(Oc2ccc(C#N)cc2)C(=O)Nc2nc3cc(OC)c(OC)cc3s2)cc1 (stereo not shown)	> 7.30

Compound	pEC50
COc1cc2nc(NC(=O)Cc3cccc(S(=O)(=O)C(C)C)c3)sc2cc1OC	< 6.30
CCS(=O)(=O)c1ccc(C(Oc2ccc(C#N)c(F)c2)C(=O)Nc2nc3cc(OC)c(OC)cc3s2)cc1 (stereo not shown)	> 7.30
COc1cc2nc(NC(=O)C(Oc3ccc(C#N)cc3)c3ccc(C(=O)N4CCN(C)CC4)cc3)sc2cc1OC (stereo not shown)	6.30 to 6.70
CCS(=O)(=O)c1ccc(C(Oc2ccc(C)cc2)C(=O)Nc2nc3cc(OC)c(OC)cc3s2)cc1 (stereo not shown)	6.30 to 6.70
CCS(=O)(=O)c1ccc(C(OCCC(C)C)C(=O)Nc2nc3cc(OC)c(OC)cc3s2)cc1 (stereo not shown)	< 6.30
COc1cc2nc(NC(=O)C(Oc3ccc(OCCN4CCCC4)cc3)c3ccc(C#N)cc3)sc2cc1OC (stereo not shown)	7.00 to 7.30
COc1cc2nc(NC(=O)C(Oc3ccc(C#N)cc3)c3ccc(OCCN4CCOCC4)cc3)sc2cc1OC (stereo not shown)	6.30 to 6.70
COc1cc2nc(NC(=O)C(Oc3ccc(C#N)cc3)c3ccc(Cl)cc3)sc2cc1OC (stereo not shown)	6.70 to 7.00
COc1cc2nc(NC(=O)C(Oc3ccc(C#N)cc3)c3ccc(S(=O)(=O)CC4CC4)cc3)sc2cc1OC (stereo not shown)	> 7.30
CCS(=O)(=O)c1ccc(C(Oc2ccc(C#N)cc2)C(=O)Nc2nc3ccc(N4CCOCC4)cc3s2)cc1 (stereo not shown)	< 6.30
CCS(=O)(=O)c1ccc(C(Oc2ccc(OCc3ccccc3)cc2)C(=O)Nc2nc3cc(OC)c(OC)cc3s2)cc1 (stereo not shown)	< 6.30
COc1cc2nc(NC(=O)C(Oc3ccc(C(=O)N(C)C)cc3)c3ccc(C#N)cc3)sc2cc1OC (stereo not shown)	> 7.30
COc1cc2nc(NC(=O)C(Oc3ccc(C#N)cc3)c3ccc(C(=O)NCCO)cc3)sc2cc1OC (stereo not shown)	7.00 to 7.30
COC(=O)c1ccc(CC(=O)Nc2nc3cc(OC)c(OC)cc3s2)cc1	< 6.30
CCS(=O)(=O)c1ccc(CC(=O)Nc2nc3cc(N(C)C)ccc3s2)cc1	< 6.30
COc1cc2nc(NC(=O)C(Oc3ccc(C#N)cc3)c3ccc(S(=O)(=O)c4ccc(F)cc4)cc3)sc2cc1OC (stereo not shown)	6.70 to 7.00
CCS(=O)(=O)c1ccc(C(OC2CCCC2)C(=O)Nc2nc3cc(OC)c(OC)cc3s2)cc1 (stereo not shown)	< 6.30
CCCCS(=O)(=O)c1cccc(C(Oc2ccc(C#N)cc2)C(=O)Nc2nc3cc(OC)c(OC)cc3s2)c1 (stereo not shown)	7.00 to 7.30
CCS(=O)(=O)c1ccc(C(Oc2ccc(C(C)C)cc2)C(=O)Nc2nc3cc(OC)c(OC)cc3s2)cc1 (stereo not shown)	6.30 to 6.70
CCS(=O)(=O)c1ccc(C(Oc2ccc(C#N)cc2)C(=O)Nc2nc3ccc(C)c(OC)c3s2)cc1 (stereo not shown)	7.00 to 7.30
CCS(=O)(=O)c1ccc(C(Oc2ccc(C#N)cc2)C(=O)Nc2nc3cc(OC)c(Cl)cc3s2)cc1 (stereo not shown)	< 6.30
CCS(=O)(=O)c1ccc(C(Oc2ccc(C#N)cc2)C(=O)Nc2nc3cc(OC)c(OC)cc3o2)cc1 (stereo not shown)	> 7.30
